Test results: US20240174684A1, “INHIBITORS OF cGAS ACTIVITY AS THERAPEUTIC AGENTS” (BELLBROOK LABS, LLC, priority 2021, published 2024)
Values after ≈ are worked out from the molar mass of the structure shown. Like-named read-outs stand apart in the source and are kept apart here.

Legend:
cGAS = cGAS (Homo sapiens, UniProt Q8N884); assay: Transcreener cGAS enzymatic assay (FP); type: biochemical
Method in brief: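 Human cGAS (30 nm) inhibition, 60 min reactions, FP read-out, standard conditions 100 μM ATP and GTP plus 62.5 nM bp ISD. Also run at 1 mM ATP and GTP (physiological), with 200 μM MnCl2, and with mouse cGAS under standard conditions; IC50 reported.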

[1] = Metabolic stability in mouse hepatocytes; type: in vitro ADME; conditions: read-out: Mouse MS Stability t1/2
Method: (§1) ADME studies: Compound A and the compounds of the disclosure were tested for aqueous solubility (KSOL), metabolic stability (human and mouse […]) and permeability (Caco-2 and/or MDR1-MDCK cells) to provide an initial indication of oral bioavailability.
(§2) The favorable physicochemical properties are reflected in promising results in in vitro ADME tests. […] Metabolic stability, which was routinely measured with mouse and human hepatocytes, is outstanding, with t, greater than 2 hours for all of the compounds of the disclosure in which it has been measured. Cell permeability was measured using MDCK cells expressing human MDR1 (P-glycoprotein) to assess passive permeability as well as active transport out of the cell. […] Numerous compounds in Table 1 meet these permeability criteria, which is consistent with their design for TPSA <140 Å^2 and increased lipophilicity.
(§3) The MDCK-MDR1 permeability A ->B is shown in Table 2 below, where A represents 5-10 cm/s×10^−6; B represents 1-5 cm/s×10^−6; and C represents <1 cm/ss×10^−6. The metabolic stability half time, in both mouse and human hepatocytes, is also shown in Table 2 below, where A′ represents 100-200 minutes; B′ represents 200-300 minutes; and C′ represents >300 minutes.

[2] = Metabolic stability in human hepatocytes; type: in vitro ADME; conditions: read-out: Human MS Stability t1/2
Method: as §1, §2, §3

[3] = Kinetic aqueous solubility (KSOL) in PBS, pH 7.4; type: physicochemical; conditions: aqueous buffer, kinetic from dmso stock
Method: as §1, §2

MDR1 (P-glycoprotein) = assay: MDCK-MDR1 permeability A→B; type: in vitro ADME, Canine; conditions: dog; MDCK cells expressing human MDR1, A→B; read-out: MDCK-MDR Permeability A→B
Method in brief: (§4)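 Permeability measured apical-to-basolateral in MDCK cells expressing human MDR1, reported as binned ranges in cm/s×10^−6. Metabolic stability determined as half-life in mouse and human hepatocytes, reported as binned ranges in minutes.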

[4] = tested on: IFNβ production in THP-1 cells; assay: IFNβ ELISA in THP-1 cells; type: cell-based, human; conditions: for IC50: Homo sapiens, THP-1 cells
Method in brief: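 THP-1 cells stimulated with dsDNA or cGAMP (STING activation bypassing cGAS) in the presence of compound; IFNβ secreted into medium quantified by ELISA. IC50 values reported in potency bins.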

[5] = tested on: IFN-β production in PBMCs; assay: IFNβ ELISA in human primary PBMCs; type: cell-based; conditions: PBMC
Description: Cellular assays: The human monocyte cell line THP-1 and human primary PBMCs were used to evaluate the cellular activity of compounds with good biochemical potency. These cells produce a robust cGAS/STING-dependent type I IFN response when stimulated with dsDNA and other pathogen-associated molecular patterns, which was detected using a standard ELISA for IFNβ (R&D Systems). The TBK1 inhibitor, BX-795, which acts downstream of cGAS/STING, was used as a probe.
The ICso values for IFNB ELISA stimulated with THP-1, PBMC, DNA, and cGAMP were determined for several exemplary compounds of the invention, and are provided in Table 3 where A represents <1 μM; B represents 1-2.5 μM; C represents 2.5-10 μM; D represents 10-20 μM; and E represents >20 μM.
The reporter gene assays were used to assess off-target activity with IRF30Luc (RIG-1) or NFKB (TLR4); CellTiter Glo (ATP levels) and Presto Blue (reducing equivalents) were used to assess cytotoxicity; all assays were performed in dose response mode. […] The inventors recently began using human PBMCs to assess cellular potency in a more physiologically relevant context.

[6] = tested on: MDCK cells expressing human MDR1 (P-glycoprotein); assay: MDCK-MDR1 permeability A→B; type: in vitro ADME, Canine
Method in brief: as §4

[7] = high ATP and GTP (1 mM) to mimic physiological conditions, read-out: IC50 FP Physiological
[8] = standard conditions: 100 μM ATP and GTP, 62.5 nM bp ISD, 60 minute reactions, read-out: IC50 FP Standard

cGAS, sequence (Q8N884 whole entry): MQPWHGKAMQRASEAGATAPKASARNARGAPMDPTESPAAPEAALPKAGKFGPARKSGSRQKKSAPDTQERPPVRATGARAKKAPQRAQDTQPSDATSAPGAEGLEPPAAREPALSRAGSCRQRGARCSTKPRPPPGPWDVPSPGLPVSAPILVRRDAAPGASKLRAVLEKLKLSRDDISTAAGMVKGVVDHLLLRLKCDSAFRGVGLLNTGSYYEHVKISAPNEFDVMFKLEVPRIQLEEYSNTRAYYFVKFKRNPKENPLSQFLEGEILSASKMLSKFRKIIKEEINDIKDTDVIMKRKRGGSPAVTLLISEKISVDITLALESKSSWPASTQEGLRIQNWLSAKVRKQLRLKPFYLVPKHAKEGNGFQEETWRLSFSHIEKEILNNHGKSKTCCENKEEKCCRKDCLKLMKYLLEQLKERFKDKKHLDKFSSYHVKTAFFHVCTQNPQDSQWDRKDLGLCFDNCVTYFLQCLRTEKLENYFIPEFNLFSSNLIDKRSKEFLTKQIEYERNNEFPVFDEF

| Compound | IC50 (cGAS; [7]) | IC50 (cGAS; [8]) | half-life [1] | half-life [2] | solubility kinetic [3] | Papp A→B (MDR1 (P-glycoprotein)) | IC50 [4] | IC50 [5] | MDCK-MDR Permeability A→B [6] | half-life ([1]; given as number) | Cellular IC50 relative to biochemical IC50 ([4]; cellular assays vs cGAS enzymatic assay at 1 mM ATP/GTP) |
| --- | --- | --- | --- | --- | --- | --- | --- | --- | --- | --- | --- |
| Cc1nc(N2C[C@@H](CC(=O)Nc3ccc4[nH]ccc4c3)C[C@H]2C(=O)O)c2oc3ccccc3c2n1 [Compound 1, (2S,4R)-4-(2-((1H-indol-5-yl)amino)-2-oxyethyl)-1-(2-methylbenzofuro[3,2-d]pyrimidin-4-yl)pyrrolidine-2-carboxylic acid] | 1000 to 5000 nM | 50 to 100 nM | 100 to 200 min | > 300 min | 487 µM (≈ 229 µg/mL) | 1 to 5 ×10⁻⁶ cm/s | 2500 to 10000 nM |  |  |  |  |
| Cc1nc(N2C[C@@H](CC(=O)Nc3ccc(Cl)c(Cl)c3)C[C@H]2C(=O)O)c2oc3ccccc3c2n1 [Compound 26, (2S,4R)-4-(2-((3,4-dichlorophenyl)amino)-2-oxoethyl)-1-(2-methylbenzofuro[3,2-d]pyrimidin-4-yl)pyrrolidine-2-carboxylic acid] | 1000 to 5000 nM | 200 to 1000 nM | > 300 min | > 300 min | 80 µM (≈ 39.9 µg/mL) | 5 to 10 ×10⁻⁶ cm/s | 2500 to 10000 nM | 2500 to 10000 nM |  |  |  |
| C#Cc1ccc(NC(=O)C[C@H]2C[C@@H](C(=O)O)N(c3nc(C)nc4c3oc3ccccc34)C2)cc1 [Compound 27, (2S,4R)-4-(2-((4-ethynylphenyl)amino)-2-oxoethyl)-1-(2-methylbenzofuro[3,2-d]pyrimidin-4-yl)pyrrolidine-2-carboxylic acid] | 1000 to 5000 nM | 100 to 200 nM | > 300 min | 100 to 200 min | 548 µM (≈ 249 µg/mL) | 1 to 5 ×10⁻⁶ cm/s | 2500 to 10000 nM | 2500 to 10000 nM |  |  |  |
| Cc1nc(N2C[C@@H](CC(=O)Nc3ccc4ccccc4c3)C[C@H]2C(=O)O)c2oc3ccccc3c2n1 [Compound 31, (2S,4R)-1-(2-methylbenzofuro[3,2-d]pyrimidin-4-yl)-4-(2-(naphthalen-2-ylamino)-2-oxoethyl)pyrrolidine-2-carboxylic acid] | 200 to 500 nM | 50 to 100 nM | > 300 min | 100 to 200 min | 313 µM (≈ 150 µg/mL) | 5 to 10 ×10⁻⁶ cm/s | 1000 to 2500 nM | 1000 to 2500 nM |  |  |  |
| Cc1nc(N2C[C@@H](CC(=O)Nc3ccc4ncccc4c3)C[C@H]2C(=O)O)c2oc3ccccc3c2n1 [Compound 32, (2S,4R)-1-(2-methylbenzofuro[3,2-d]pyrimidin-4-yl)-4-(2-oxo-2-(quinolin-6-ylamino)ethyl)pyrrolidine-2-carboxylic acid] | 1000 to 5000 nM | 50 to 100 nM | 200 to 300 min | > 300 min | 527 µM (≈ 254 µg/mL) |  | 2500 to 10000 nM | 10000 to 20000 nM | C (C represents <1 cm/ss×10^−6) |  |  |
| Cc1nc(N2C[C@@H](CC(=O)Nc3cccc(-c4ccccc4)c3)C[C@H]2C(=O)O)c2oc3ccccc3c2n1 [Compound 36, (2S,4R)-4-(2-([1,1′-biphenyl]-3-ylamino)-2-oxoethyl)-1-(2-methylbenzofuro[3,2-d]pyrimidin-4-yl)pyrrolidine-2-carboxylic acid] | 200 to 500 nM | 50 to 100 nM | > 300 min | > 300 min | 155 µM (≈ 78.5 µg/mL) | 1 to 5 ×10⁻⁶ cm/s | 1000 to 2500 nM | 1000 to 2500 nM |  |  |  |
| Cc1nc(N2C[C@@H](CC(=O)Nc3ccc(-c4cccnc4)cc3)C[C@H]2C(=O)O)c2oc3ccccc3c2n1 [Compound 37, (2S,4R)-1-(2-methylbenzofuro[3,2-d]pyrimidin-4-yl)-4-(2-oxo-2-((4-(pyridin-3-yl)phenyl)amino)ethyl)pyrrolidine-2-carboxylic acid] | < 200 nM | < 50 nM | 200 to 300 min | > 300 min | 547 µM (≈ 278 µg/mL) |  | 1000 to 2500 nM | 1000 to 2500 nM | C (C represents <1 cm/ss×10^−6) |  |  |
| Cc1nc(N2C[C@@H](CC(=O)Nc3ccc(-c4ccc5[nH]ncc5c4)cc3)C[C@H]2C(=O)O)c2oc3ccccc3c2n1 [Compound 38, (2S,4R)-4-(2-((4-(1H-indazol-5-yl)phenyl)amino)-2-oxoethyl)-1-(2-methylbenzofuro[3,2-d]pyrimidin-4-yl)pyrrolidine-2-carboxylic acid] | 200 to 500 nM | < 50 nM | > 300 min | 100 to 200 min | 84 µM (≈ 45.9 µg/mL) |  | 1000 to 2500 nM | 2500 to 10000 nM | C (C represents <1 cm/ss×10^−6) |  |  |
| Cc1nc(N2C[C@@H](CC(=O)Nc3ccc(-c4cccc5[nH]ncc45)cc3)C[C@H]2C(=O)O)c2oc3ccccc3c2n1 [Compound 46, (2S,4R)-4-(2-((4-(1H-indazol-4-yl)phenyl)amino)-2-oxoethyl)-1-(2-methylbenzofuro[3,2-d]pyrimidin-4-yl)pyrrolidine-2-carboxylic acid] | < 200 nM | < 50 nM | > 300 min | 100 to 200 min | 42 µM (≈ 23 µg/mL) |  | < 1000 nM | 1000 to 2500 nM | C (C represents <1 cm/ss×10^−6) |  |  |
| Cc1nc(N2C[C@@H](CC(=O)Nc3ccc(Cc4ccccc4)cc3)C[C@H]2C(=O)O)c2oc3ccccc3c2n1 [Compound 54, (28.4R)-4-(2-((4-benzylphenyl)amino)-2-oxoethyl)-1-(2-methylbenzofuro[3,2-d]pyrimidin-4-yl)pyrrolidine-2-carboxylic acid] | 500 to 1000 nM | 50 to 100 nM | 100 to 200 min | 100 to 200 min | 285 µM (≈ 148 µg/mL) | 1 to 5 ×10⁻⁶ cm/s | 1000 to 2500 nM | 2500 to 10000 nM |  |  |  |
| Cc1nc(N2C[C@@H](CC(=O)Nc3ccc(-c4ccccc4)c(C(F)(F)F)c3)C[C@H]2C(=O)O)c2oc3ccccc3c2n1 [Compound 63, (2S,4R)-1-(2-methylbenzofuro[3,2-d]pyrimidin-4-yl)-4-(2-oxo-2-((2-(trifluoromethyl)-[1,1′-biphenyl]-4-yl)amino)ethyl)pyrrolidine-2-carboxylic acid] | 200 to 500 nM | 100 to 200 nM |  | 100 to 200 min | 570 µM (≈ 327 µg/mL) | 1 to 5 ×10⁻⁶ cm/s | < 1000 nM | 1000 to 2500 nM |  | > 360 min | essentially identical |
